Patent publication US20240239792A1, “MODULATORS OF BCL-2 OR BCL-2/BCL-XL AND USES THEREOF” (APPICINE THERAPEUTICS (HK) LIMITED, priority 2021, published 2024)
pIC50: −log10 of the molar value.

Legend:
[1] = biological target: T1, BCL-2 (Homo sapiens, UniProt P10415); experiment: HTRF BCL-2/BAK assay (Cisbio); format: binding; conditions: recombinant human Tag1-BCL-2 2 nM, Tag2-BAK 10 nM
T1 construct: purchased Cisbio 63ADK000CB01PEG
Procedure: (§1) Then the pre-mixed anti-Tag1-Eu^3+ and anti-tag2-XL665 were added to the plate and further incubated at room temperature for another 2 hours. The signals ([…]) were read on Envision 2104 instrument. The IC50 for each compound was derived from fitting the signal of 665/615 nM to the increasing compound concentration.
(§2) Using the above assays, the following compounds were tested.

[2] = test system: DOHH2 cells; experiment: CellTiter-Glo cell proliferation assay, DOHH2 cells; format: cell-based; conditions: Homo sapiens, DOHH-2, 72 hours
Procedure: The CellTiter-Glo® Luminescent Cell Viability Assay (Promega, G7573) was used to study the cellular potency of disclosed compounds herein. The cells were harvested during the logarithmic growth period and counted with hemocytometer. The DOHH2 cells were seeded at 1.6*10^4 in 90 ul DMEM medium supplemented with 10% fetal bovine serum (FBS) (as RS4;11 cells were seeded at 4000 in 90 ul RPMI-1640 medium with 10% FBS) per well in 96-well plates and treated with 10 ul of a serial dilution of compounds disclosed herein (maximum concentration and dilution ratio determined by the results of pre-experiment may vary) for 72 hours in a 5% CO2 incubator at 37° C. Cell viability was assessed according to the manufacturer's recommendations. After the plates return to the room temperature, 100 ul of CellTiter-Glo® reagent was added to 100 ul of cell culture. The mixture was agitated on an orbital shaker for 2 minutes or placed it at room temperature for 10 minutes to allow cell lysis and stabilization of luminescent signals. Luminescent signals were recorded using Envision 2104 instrument. And GI50 values were then calculated.

[3] = biological target: T2, BCL-XL (Homo sapiens, UniProt Q07817); experiment: HTRF BCL-XL/BAK assay (Cisbio); format: binding; conditions: recombinant human Tag1-BCL-XL 2 nM, Tag2-BAK 5 nM
T2 construct: purchased Cisbio 63ADK000CB04PEG
Procedure: as §1, §2

T1 sequence (P10415 whole entry): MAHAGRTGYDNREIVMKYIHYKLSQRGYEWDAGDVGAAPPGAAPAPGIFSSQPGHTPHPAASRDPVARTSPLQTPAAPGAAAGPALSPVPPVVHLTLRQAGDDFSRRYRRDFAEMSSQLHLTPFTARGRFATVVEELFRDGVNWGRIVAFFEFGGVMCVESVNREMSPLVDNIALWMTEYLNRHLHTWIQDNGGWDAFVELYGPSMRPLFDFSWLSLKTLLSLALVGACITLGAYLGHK
T2 sequence (Q07817 whole entry): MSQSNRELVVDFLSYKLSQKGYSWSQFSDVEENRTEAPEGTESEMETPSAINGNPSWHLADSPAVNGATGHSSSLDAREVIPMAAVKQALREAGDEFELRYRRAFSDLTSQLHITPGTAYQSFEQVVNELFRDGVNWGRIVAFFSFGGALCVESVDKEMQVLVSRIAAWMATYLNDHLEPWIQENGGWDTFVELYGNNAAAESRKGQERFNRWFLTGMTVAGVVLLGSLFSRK

Row | Compound | pIC50 [1] | pIC50 [3] | GI50 [2]
1 | O=C(NS(=O)(=O)c1ccc(NCC2CCOCC2)c([N+](=O)[O-])c1)c1ccc(N2CC3(C2)CN(C2CCCCc4ccccc42)C3)cc1Oc1cnc2[nH]ccc2c1 (stereo not drawn) [Compound 95, 2-((1H-pyrrolo[2,3-b]pyridin-5-yl)oxy)-N-((3-nitro-4-(((tetrahydro-2H-pyran-4-yl)methyl)amino)phenyl)sulfonyl)-4-(6-(6,7,8,9-tetrahydro-5H-benzo[7]annulen-5-yl)-2,6-diazaspiro[3.3]heptan-2-yl)benzamide] | 6.70 to 7.70 |  | 500 to 5000 nM
2 | O=C(NS(=O)(=O)c1ccc(NCC2CCOCC2)c([N+](=O)[O-])c1)c1ccc(N2CC3(C2)CN(C2CCCc4ccccc42)C3)cc1Oc1cnc2[nH]ccc2c1 (stereo not drawn) [Compound 96, 2-((1H-pyrrolo[2,3-b]pyridin-5-yl)oxy)-N-((3-nitro-4-(((tetrahydro-2H-pyran-4-yl)methyl)amino)phenyl)sulfonyl)-4-(6-(1,2,3,4-tetrahydronaphthalen-1-yl)-2,6-diazaspiro[3.3]heptan-2-yl)benzamide] | 6.70 to 7.70 |  | > 5000 nM
3 | O=C(NS(=O)(=O)c1ccc(NCC2CCOCC2)c([N+](=O)[O-])c1)c1ccc(N2CC3(CCN(C4CCCCc5ccccc54)CC3)C2)cc1Oc1cnc2[nH]ccc2c1 (stereo not drawn) [Compound 97, 2-((1H-pyrrolo[2,3-b]pyridin-5-yl)oxy)-N-((3-nitro-4-(((tetrahydro-2H-pyran-4-yl)methyl)amino)phenyl)sulfonyl)-4-(7-(6,7,8,9-tetrahydro-5H-benzo[7]annulen-5-yl)-2,7-diazaspiro[3.5]nonan-2-yl)benzamide] | 6.70 to 7.70 |  | 500 to 5000 nM
4 | O=C(NS(=O)(=O)c1ccc(NCC2CCOCC2)c([N+](=O)[O-])c1)c1ccc(N2CC3(CCN(C4CCCCc5ccccc54)C3)C2)cc1Oc1cnc2[nH]ccc2c1 (stereo not drawn) [Compound 98, 2-((1H-pyrrolo[2,3-b]pyridin-5-yl)oxy)-N-((3-nitro-4-(((tetrahydro-2H-pyran-4-yl)methyl)amino)phenyl)sulfonyl)-4-(6-(6,7,8,9-tetrahydro-5H-benzo[7]annulen-5-yl)-2,6-diazaspiro[3.4]octan-2-yl)benzamide] | 6.70 to 7.70 |  | 500 to 5000 nM
5 | CC(C)(C)OC(=O)N1CCC2(CC1)CC(CNc1ccc(S(=O)(=O)NC(=O)c3ccc(N4CCN([C@@H]5CCCCc6c(Cl)cccc65)CC4)cc3)cc1[N+](=O)[O-])C2 [Compound 116, tert-butyl (R)-2-(((4-(N-(4-(4-(1-chloro-6,7,8,9-tetrahydro-5H-benzo[7]annulen-5-yl)piperazin-1-yl)benzoyl)sulfamoyl)-2-nitrophenyl)amino)methyl)-7-azaspiro[3.5]nonane-7-carboxylate] | < 5.70 | < 5.70 | 
6 | CC(=O)N1CCC2(CC1)CC(CNc1ccc(S(=O)(=O)NC(=O)c3ccc(N4CCN([C@@H]5CCCCc6c(Cl)cccc65)CC4)cc3)cc1[N+](=O)[O-])C2 [Compound 118, (R)-N-((4-(((7-acetyl-7-azaspiro[3.5]nonan-2-yl)methyl)amino)-3-nitrophenyl)sulfonyl)-4-(4-(1-chloro-6,7,8,9-tetrahydro-5H-benzo[7]annulen-5-yl)piperazin-1-yl)benzamide] | 5.70 to 6.70 | < 5.70 | 
7 | O=C(NS(=O)(=O)c1ccc(NCC2CC3(CCC(O)CC3)C2)c([N+](=O)[O-])c1)c1ccc(N2CCN([C@@H]3CCCCc4c(Cl)cccc43)CC2)cc1Oc1cnc2[nH]ccc2c1 (stereo partly drawn) [Compound 134, (R)-2-((1H-pyrrolo[2,3-b]pyridin-5-yl)oxy)-4-(4-(1-chloro-6,7,8,9-tetrahydro-5H-benzo[7]annulen-5-yl)piperazin-1-yl)-N-((4-(((7-hydroxyspiro[3.5]nonan-2-yl)methyl)amino)-3-nitrophenyl)sulfonyl)benzamide] | > 7.70 |  | < 50 nM
8 | O=C(NS(=O)(=O)c1ccc(NCC2CC3(CCC(F)(F)CC3)C2)c([N+](=O)[O-])c1)c1ccc(N2CCN([C@@H]3CCCCc4c(Cl)cccc43)CC2)cc1Oc1cnc2[nH]ccc2c1 [Compound 135, (R)-2-((1H-pyrrolo[2,3-b]pyridin-5-yl)oxy)-4-(4-(1-chloro-6,7,8,9-tetrahydro-5H-benzo[7]annulen-5-yl)piperazin-1-yl)-N-((4-(((7,7-difluorospiro[3.5]nonan-2-y1)methyl)amino)-3-nitrophenyl)sulfonyl)benzamide] | > 7.70 |  | < 50 nM

More lines, main results first:

Row | pIC50 [1] | pIC50 [3] | Compound | GI50 [2]
9 | > 7.70 |  | CC(C)(C)OC(=O)N1CC2CC1CC2CNc1ccc(S(=O)(=O)NC(=O)c2ccc(N3CCN([C@@H]4CCCCc5c(Cl)cccc54)CC3)cc2Oc2cnc3[nH]ccc3c2)cc1[N+](=O)[O-] (stereo partly drawn) [Compound 103, tert-butyl 5-(((4-(N-(2-((1H-pyrrolo[2,3-b]pyridin-5-yl)oxy)-4-(4-((R)-1-chloro-6,7,8,9-tetrahydro-5H-benzo[7]annulen-5-yl)piperazin-1-yl)benzoyl)sulfamoyl)-2-nitrophenyl)amino)methyl)-2-azabicyclo[2.2.1]heptane-2-carboxylate] | 50 to 500 nM
10 | > 7.70 |  | O=C(NS(=O)(=O)c1ccc(NCC2CC3CC2CN3)c([N+](=O)[O-])c1)c1ccc(N2CCN([C@@H]3CCCCc4c(Cl)cccc43)CC2)cc1Oc1cnc2[nH]ccc2c1 (stereo partly drawn) [Compound 105, 2-((1H-pyrrolo[2,3-b]pyridin-5-yl)oxy)-N-((4-(((2-azabicyclo[2.2.1]heptan-5-yl)methyl)amino)-3-nitrophenyl)sulfonyl)-4-(4-((R)-1-chloro-6,7,8,9-tetrahydro-5H-benzo[7]annulen-5-yl)piperazin-1-yl)benzamide] | 50 to 500 nM
11 | > 7.70 |  | O=C(O)CCN1CCC2(CC1)CC(CNc1ccc(S(=O)(=O)NC(=O)c3ccc(N4CCN([C@@H]5CCCCc6c(Cl)cccc65)CC4)cc3Oc3cnc4[nH]ccc4c3)cc1[N+](=O)[O-])C2 [Compound 126, (R)-3-(2-(((4-(N-(2-((1H-pyrrolo[2,3-b]pyridin-5-yl)oxy)-4-(4-(1-chloro-6,7,8,9-tetrahydro-5H-benzo[7]annulen-5-yl)piperazin-1-yl)benzoyl)sulfamoyl)-2-nitrophenyl)amino)methyl)-7-azaspiro[3.5]nonan-7-yl)propanoic acid] | < 50 nM
12 | > 7.70 |  | O=C(NS(=O)(=O)c1ccc(NCC2CC3(CCN(S(=O)(=O)C4CC4)CC3)C2)c([N+](=O)[O-])c1)c1ccc(N2CCN([C@@H]3CCCCc4c(Cl)cccc43)CC2)cc1Oc1cnc2[nH]ccc2c1 [Compound 127, (R)-2-((1H-pyrrolo[2,3-b]pyridin-5-yl)oxy)-4-(4-(1-chloro-6,7,8,9-tetrahydro-5H-benzo[7]annulen-5-y1)piperazin-1-yl)-N-((4-(((7-(cyclopropylsulfonyl)-7-azaspiro[3.5]nonan-2-yl)methyl)amino)-3-nitrophenyl)sulfonyl)benzamide] | < 50 nM
13 | > 7.70 |  | CC(C)S(=O)(=O)N1CCC2(CC1)CC(CNc1ccc(S(=O)(=O)NC(=O)c3ccc(N4CCN([C@@H]5CCCCc6c(Cl)cccc65)CC4)cc3Oc3cnc4[nH]ccc4c3)cc1[N+](=O)[O-])C2 [Compound 128, (R)-2-((1H-pyrrolo[2,3-b]pyridin-5-yl)oxy)-4-(4-(1-chloro-6,7,8,9-tetrahydro-5H-benzo[7]annulen-5-yl)piperazin-1-yl)-N-((4-(((7-(isopropylsulfony1)-7-azaspiro[3.5]nonan-2-yl)methyl)amino)-3-nitrophenyl)sulfony1)benzamide] | < 50 nM
14 | > 7.70 |  | O=C(NS(=O)(=O)c1ccc(NCC2CC3(CCCCC3)C2)c([N+](=O)[O-])c1)c1ccc(N2CCN([C@@H]3CCCCc4c(Cl)cccc43)CC2)cc1Oc1cnc2[nH]ccc2c1 [Compound 132, (R)-2-((1H-pyrrolo[2,3-b]pyridin-5-yl)oxy)-4-(4-(1-chloro-6,7,8,9-tetrahydro-5H-benzo[7]annulen-5-yl)piperazin-1-yl)-N-((3-nitro-4-((spiro[3.5]nonan-2-ylmethyl)amino)phenyl)sulfonyl)benzamide] | 50 to 500 nM
15 | > 7.70 |  | O=C(NS(=O)(=O)c1ccc(NCC2CC3(CCC4(CC3)OCCO4)C2)c([N+](=O)[O-])c1)c1ccc(N2CCN([C@@H]3CCCCc4c(Cl)cccc43)CC2)cc1Oc1cnc2[nH]ccc2c1 [Compound 133, (R)-2-((1H-pyrrolo[2,3-b]pyridin-5-yl)oxy)-N-((4-(((8,11-dioxadispiro[3.2.47.24]tridecan-2-yl)methyl)amino)-3-nitrophenyl)sulfony1)-4-(4-(1-chloro-6,7,8,9-tetrahydro-5H-benzo[7]annulen-5-yl)piperazin-1-yl)benzamide] | < 50 nM
